Marks after values point to notes of the source that are not given here.
Key:
rats = experiment: Open Field test in normal rats; type: in vivo, rat; conditions: additional experiments
[1] = test system: organotypic hippocampal neuronal slice cultures (OHSC); experiment: OGD, metabolic activity (MTS) in organotypic hippocampal slice cultures; type: cell-based, rat
Source text: In the present study it was investigated the effect of the FGL peptide on synaptic plasticity, neuronal function and vulnerability following oxygen and glucose deprivation (OGD) in organotypic hippocampal neuronal slice cultures (OHSC) from 7-day-old Wistar rats according to method of Stoppini et al. (1991) Neurosci Methods. 37:173-82 and primary cultures of dissociated hippocampal neurons from 1-day-old rats according to method of Maar et al. (1997) J Neurosci Res. 47:163-72. Primary cell cultures were maintained for 11-12 days and OHSC for 12-14 days prior to adding FGLd.
The primary cell cultures and OHSC were exposed to OGD for 10 and 20 minutes. Following OGD, the cultures were again supplied with oxygen and glucose and analysed at 1, 4 or 24 hour time point after introduction of OGD exposure. FGLd (or the control peptide FGLc) was added 24 hr before, immediately, or 1 hr or 24 hr after OGD. […]
In hippocampal neuronal cultures, FM 1-43 staining was used to evaluate pre-synaptic function (described above). Cell viability in both primary cell cultures and OHSC was measured using the […] [3-(4,5-dimethylthiazol-2-yl)-2,5-diphenyltetrazolium bromide] assay according to Malich et al, (1997) Toxicology. […] In, addition, cell viability in OHSC was measured using propidium iodide (PI) staining according to Laake et al. (1999) Brain Res Brain Res Protoc. […]

hippocampal neurons = experiment: Survival of hippocampal neurons exposed to Aβ25-35; type: cell-based, rat; conditions: for Neuronal Survival (% of Control): β-amyloid, Hippocampal (E19)
Experimental: For the experiments dissociated hippocampal neurons were isolated from Wistar rat embryos at embryonic day 19 or newborn rats as described by Rønn et al. (1999) Nat. Biotechnol. 17:1000-5.
Briefly, hippocampus was isolated from the brain in ice cold modified Krebs Ringer solution, cleared of blood vessels, roughly homogenised by chopping and then trypsinised. The dissociated cells were washed in the presence of DNAse 1 and soybean trypsin inhibitor.
For the assay neurons were plated at a density of 40,000 cells/cm^2 on 8-well permanox slides coated with 10 μg/ml poly-L-lysine in Neurobasal medium. 15 minutes after plating, Aβ25-35 was added to a final concentration of 20 μM. The Aβ25-35 had prior to plating been dissolved in sterile deionized water to a concentration of 3 mM and incubated at 37° C. for four days according to Pigino et al. (2001) J. Neurosci. 21:834-42. This treatment induces fibrillation of the Aβ-peptide fragment, thereby increasing its neurotoxic activity. The neurons were incubated with Neurobasal medium containing the FGL peptide for 70 hours, fixed with 4% (v/v) formaldehyde, and stained with Hoechst 33258 for 25 minutes as described by Kruman et al. (1997). Images of 1000-1500 neurons were randomly recorded for each group in each experiment using computer assisted fluorescence microscopy as described for the hippocampal neurite outgrowth assay. Nuclei from dead and live neurons were counted using the software package Prima developed at the Protein Laborator, Copenhagen University, and the fraction of live neurons relative to the total number of neurons was estimated.

[2] = test system: rats treated with (25-35) β-amyloid fragment; experiment: Amyloid burden in brain sections, (25-35) β-amyloid fragment rat model; type: in vivo; conditions: Study 2; sub-occipital 5 μg, days 7, 10, 13; β-amyloid only = 100%
Experimental: The number of animals in the groups varied from 3 to 13. Results were analysed using one-way ANOVA (F(2,18)=5.2, p=0.016), and significance of results was contingent on achieving a p-value of less than 0.05 (*p<0.05 and **p<0.01), when compared with the A-β/V group (Newman-Keuls posttest).
The number of animals in the groups varied from 2 to 12. Results were analysed using one-way ANOVA (F(2,15)=9.54, p=0.002), and significance of results was contingent on achieving a p-value of less than 0.05 (***p<0.001), when compared with the A-β/V group (Newman-Keuls posttest).
The number of animals per group varied from 3 to 13. The results were analysed using one-way ANOVA (F(2,12)=18.6, P=0.002) and significance of results was contingent on achieving a p-value of less than 0.05 (***p<0.001) when compared with the A-β/V group (Bonferroni's multiple comparison test).
The number of animals per group varied from 3 to 5. The results were analysed using one-way ANOVA (F(2,9)=10.6, P=0.004) and significance of results was contingent on achieving a p-value of less than 0.05 (***p<0.001) when compared with the A-β/V group (Newman-Keuls post-test).
Behaviour of animals was evaluated using the Social Recognition test, the Open Field test or the Light-dark Discriminating γ-maze. […] In addition, the number of neurons in selected areas of brain-sections was calculated using a stereological approach.

FGLd: MAP-type dendrimer of FGL; dendrimeric tetramer of the FGL peptide (EVYVVAENQQGKSKA)
emotional or locomotor behaviour (rats): did not influence emotional or locomotor behaviour
metabolic activity (MTS), treatment alone ([1]; no OGD): led to an increase in metabolic activity
metabolic activity (MTS) after OGD ([1]; treated 24 hours prior to OGD, 1 h and 24 h after OGD): caused a normalization of the metabolic activity
neuroprotection of hippocampal neurons, maximal level (hippocampal neurons; at 0.3 μg/ml, 20 μM Aβ25-35, Aβ25-35-treated controls = 100%): 110%
Neuronal Survival (% of Control) (hippocampal neurons; 0.01 μg/mL): 109%** % of Control
Neuronal Survival (% of Control) (hippocampal neurons; 3 μg/mL): 107%** % of Control
Neuronal Survival (% of Control) (hippocampal neurons; 9 μg/mL): 107%** % of Control
amyloid burden in the CA3 area of the hippocampus [2]: 44%
amyloid burden in the cingulate cortex [2]: 42%
